Biological target: T1, human CB2 (Homo sapiens, UniProt P34972)
T1 construct: expressed in transfected cells; host or cells: HEK-293T (transient transfection, membrane preparation)
Assay: CB2 receptor binding assay, block of [3H]-CP 55,940 binding
Settings: membranes of HEK-293T cells transfected with human CB2 cDNA; 1.5 nM [3H]-CP 55,940
Experimental: Membrane preparation—HEK-293T cells were cultured according to ATCC (Manassas, Va.) guidelines and transfected with human CB2 cDNA (SEQ ID NO:1) (Genbank X74328), operably linked to the SV40 promoter, using Polyfect (Qiagen, Valencia, Calif.) or Fugene (Roche, Nutley, N.J.) according to manufacturer's instructions. 48 h after transfection cells were harvested in ice cold membrane buffer (20 mM HEPES, 6 mM MgCl2, 1 mM EDTA, pH 7.2) using a cell scraper. Cells were transferred to a nitrogen cavitation chamber and a pressure of […] was applied for 30 min. The pressure was released and the cell debris was collected and centrifuged at 1000 g at 4° C. for 10 min. The supernatant was collected and the spin was repeated until the supernatant was free of precipitate. Membranes were then pelleted by centrifugation at 12.000 g at 4° C. for 20 min. Membranes were resuspended in an appropriate amount of membrane buffer. The membrane concentration was determined using a BioRad (Hercules, Calif.) protein assay dye reagent according to manufacturer's instructions. Membranes were diluted to 1 mg/ml and aliquots snap-frozen in liquid nitrogen and store at −80° C.
Binding assay—0.5-10 ng of membranes were incubated in binding buffer (50 mM Tris, 0.5 mM EDTA, 0.1% BSA, pH 7.4) in the presence of 1.5 nM radioligand ([^3H]-CP 55,940 Perkin Elmer) and varying concentrations of ligands (total volume 100 μL in a 96 well plate). Membranes were filtered onto a 96 well GF/B filterplate (Packard Bioscience, Shelton, Conn.) and washed with […] wash buffer (25 mM HEPES, 1 mM CaCl2, 5 mM MgCl2, 0.25M NaCl) using a Filtermate 196 Harvester (Packard Instruments, Downers Grove, Ill.). The filter plates were dried under a heat lamp before addition of 50 μL of scintillation fluid to each well (Microscint 20, Packard, Shelton, Conn.). Plates were counted on a Topcount NXT (Packard, Shelton, Conn.).
Data Analysis—Graphs were plotted and KD values were determined by nonlinear regression analysis using Prism software (GraphPad version 4.0, San Diego, Calif., USA).

T1 sequence (P34972 whole entry): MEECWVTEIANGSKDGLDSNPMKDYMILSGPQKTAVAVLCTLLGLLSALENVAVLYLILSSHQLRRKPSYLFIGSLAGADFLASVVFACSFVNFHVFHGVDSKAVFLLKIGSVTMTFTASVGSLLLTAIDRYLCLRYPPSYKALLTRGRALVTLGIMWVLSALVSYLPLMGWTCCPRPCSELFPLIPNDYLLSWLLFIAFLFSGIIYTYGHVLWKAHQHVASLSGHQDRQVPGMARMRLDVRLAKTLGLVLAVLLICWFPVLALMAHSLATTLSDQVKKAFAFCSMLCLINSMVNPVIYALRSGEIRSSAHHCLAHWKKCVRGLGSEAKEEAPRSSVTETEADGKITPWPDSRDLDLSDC

| Structure (SMILES) | pKi |
| --- | --- |
| Cc1cccc2nc(-c3c(F)cncc3F)c(Nc3ccc4c(c3)OCCO4)n12 [CR-52] | 7.3 |
| Cc1cccc2nc(-c3c(F)cc(O)cc3F)c(Nc3ccc4c(c3)OCCO4)n12 [CR-28] | 7.9 |
| COc1cc(-c2nc3cc(C)ccn3c2Nc2ccc3c(c2)OCCO3)ccc1O [CR-60] | 7.1 |
| Cc1ccc2nc(-c3ncccc3F)c(Nc3ccc4c(c3)OCCO4)n2c1 [CR-87] | 6.6 |
| COc1cc(O)ccc1-c1nc2c(C)cccn2c1Nc1ccc2c(c1)OCCO2 [CR-105] | 6.4 |
| Cc1ccc2nc(-c3c(C)cccc3C)c(Nc3ccc4c(c3)OCCO4)n2c1 [CR-49] | 7.3 |
| Cc1cc(O)cc(C)c1-c1nc2cccc(OCCF)n2c1Nc1ccc2c(c1)OCCO2 [CR-27] | 7.9 |
| Fc1ccc(-c2nc3cnccn3c2Nc2ccc3c(c2)OCCO3)cn1 [CR-89] | 5.5 |
| COc1ccc2nc(-c3c(F)ccc(OCF)c3Cl)c(Nc3ccc4c(c3)OCCO4)n2c1 [CR-16] | 8.6 |
| COc1cnc2nc(-c3c(F)cncc3F)c(Nc3ccc4c(c3)OCCO4)n2c1 [CR-137] | 6.5 |
| COc1cccc2nc(-c3c(F)ccc(O)c3F)c(Nc3ccc4c(c3)OCCO4)n12 [CR-4] | 8.5 |
| COc1cc(-c2nc3cc(C)ccn3c2Nc2ccc3c(c2)OCO3)cc(F)c1O [CR-130] | 6.1 |
| COc1cccc(OC)c1-c1nc2cccc(C)n2c1Nc1ccc2c(c1)OCCO2 [CR-114] | 6.3 |
| Fc1cc(-c2nc3cnccn3c2Nc2ccc3c(c2)OCCO3)ccn1 [CR-83] | 5.5 |
| COc1cccc2nc(-c3c(F)cc(OCF)cc3F)c(Nc3ccc4c(c3)OCCO4)n12 [CR-3] | 8.6 |
| FCCOc1cccc2nc(-c3c(F)cncc3F)c(Nc3ccc4c(c3)OCCO4)n12 [CR-7] | 7.4 |
| COc1ccnc2nc(-c3c(C)cc(OCCF)cc3C)c(Nc3ccc4c(c3)OCCO4)n12 [CR-73] | 6.8 |
| COc1cc(O)ccc1-c1nc2cccc(C)n2c1Nc1ccc2c(c1)OCCO2 [CR-65] | 6.9 |
| Clc1cncc(Cl)c1-c1nc2ccccn2c1Nc1ccc2c(c1)OCCO2 [CR-64] | 7.0 |
| COc1cccc2nc(-c3c(F)cncc3F)c(Nc3ccc4c(c3)OCCO4)n12 [CR-34] | 7.8 |
| Cc1cccc(C)c1-c1nc2ncccn2c1Nc1ccc2c(c1)OCCO2 [CR-74] | 6.8 |
| COc1cc(-c2nc3cccc(C)n3c2Nc2ccc3c(c2)OCCO3)ccc1OCCF [CR-88] | 6.6 |
| Cc1cccc2nc(-c3c(F)cc(OCCF)cc3F)c(Nc3ccc4c(c3)OCCO4)n12 [CR-26] | 7.9 |

Results, then the molecule that gave them:

| pKi | Structure (SMILES) |
| --- | --- |
| 7.4 | COc1ccc2nc(-c3c(F)cccc3Cl)c(Nc3ccc4c(c3)OCCO4)n2c1Cl [CR-44] |
| 8.1 | CCOc1cccc2nc(-c3c(F)cccc3Cl)c(Nc3ccc4c(c3)OCCO4)n12 [CR-24] |
| 6.6 | Clc1cccc(Cl)c1-c1nc2cnccn2c1Nc1ccc2c(c1)OCCO2 [CR-94] |
| 7.4 | Cc1ccc2nc(-c3c(Cl)cccc3[N+](=O)[O-])c(Nc3ccc4c(c3)OCCO4)n2c1 [CR-47] |
| 8.7 | COc1cccc2nc(-c3c(F)cccc3Cl)c(Nc3ccc4c(c3)OCCO4)n12 [CR-14] |
| 7.7 | Fc1cccc(Cl)c1-c1nc2ccccn2c1Nc1ccc2c(c1)OCCO2 [CR-38] |
| 7.3 | Cc1cccc2nc(-c3c(F)cccc3Cl)c(Nc3ccc4c(c3)OCO4)n12 [CR-127] |
| 6.4 | COc1ccnc2nc(-c3c(F)cccc3Cl)c(Nc3ccc4c(c3)OCCO4)n12 [CR-104] |
| 7.8 | C=COc1ccc2nc(-c3c(F)cccc3Cl)c(Nc3ccc4c(c3)OCCO4)n2c1 [CR-30] |
| 8.4 | COc1cccc2nc(-c3c(F)cccc3F)c(Nc3ccc4c(c3)OCCO4)n12 [CR-19] |
| 6.4 | COc1cc(O)ccc1-c1nc2cc(C)ccn2c1Nc1ccc2c(c1)OCCO2 [CR-107] |
| 6.4 | OCc1ccn2c(Nc3ccc4c(c3)OCCO4)c(-c3c(F)cccc3Cl)nc2c1 [CR-102] |
| 6.6 | Cc1cccc2nc(-c3c(O)cccc3F)c(Nc3ccc4c(c3)OCCO4)n12 [CR-86] |
